Data reported in the supplement of paper PMC8024199.
± gives the standard deviation of the averaged measurements.

Experiments:
Assay in all cases: drug sensitivity score (DSS) (DSS score); higher = more sensitive (stronger growth inhibition); extreme values may be limits of the assay
[1] = tested on: Ba/F3 P210-BCR-ABL1 RUNX1-/- (mouse)
Summary of the method: (§1)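 Each value is a drug sensitivity score derived from CellTiter-Glo luminescence scaled between vehicle and positive-control wells. Mouse Ba/F3 clones, CRISPR/Cas9-edited at a target exon or edited controls, were seeded at 10,000 cells per well in RPMI with 10% FBS and treated for 72 h at 37 °C and 5% CO2. Compounds from a 528-compound library were tested at five concentrations over a 10,000-fold range, and scores were averaged over two replicates.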

[2] = tested on: Ba/F3 P210-BCR-ABL1 RUNX1-/mut (mouse)
Summary of the method: as §1

[3] = tested on: Ba/F3 P210-BCR-ABL1 RUNX1wt/wt control (mouse)
Summary of the method: as §1

Row | SMILES | drug sensitivity score [1] | drug sensitivity score [2] | drug sensitivity score [3]
1 | CC(C)(C)C[C@@H]1N[C@@H](C(=O)N[C@H]2CC[C@H](O)CC2)[C@H](c2cccc(Cl)c2F)[C@]12C(=O)Nc1cc(Cl)ccc12 | 6.65 ± 1.3 | 6.95 ± 1.9 | 0.75 ± 0.35
2 | CC(C)(C)c1cc(NC(=O)Nc2ccc(Oc3ccnc4[nH]c(=O)cnc34)cc2F)n(-c2ccccc2)n1 | 25.9 ± 0.78 | 20.9 ± 0.49 | 17.4 ± 0.21
3 | CC(C)Oc1ccc(C(=O)N[C@H](CNC(=O)CN(C)C)Cc2ccc(-c3cn4cccc([C@H](C)O)c4n3)cc2)cc1Cl | 10.2 ± 0.57 | 7.5 ± 2.4 | 2 ± 0.14
4 | CCOc1ccn(-c2ccc(F)cc2)c(=O)c1C(=O)Nc1ccc(Oc2ccnc(N)c2Cl)c(F)c1 | 0.1 ± 0.14 | 0 | 0
5 | CCc1cncnc1N1CCN(Cc2nc3ccc(C(F)(F)F)cc3[nH]2)CC1 | 2 ± 1.1 | 0.8 ± 1.1 | 0
6 | CCn1c(-c2nonc2N)nc2c(C#CC(C)(C)O)ncc(OC[C@H]3CCCNC3)c21 | 0.75 ± 1.1 | 1.45 ± 2 | 0
7 | CCn1c(-c2nonc2N)nc2cnc(Oc3cccc(NC(=O)c4ccc(OCCN5CCOCC5)cc4)c3)cc21 | 5.55 ± 1.1 | 4.25 ± 2.3 | 1.45 ± 0.071
8 | CCn1c(C(=O)N(C2CC2)C2CC2)cc2c3c(ncn3C)c(Nc3cc(C)n(C)n3)nc21 | 0.35 ± 0.49 | 0 | 0
9 | CCn1cc(-c2ccnc3[nH]c(-c4cccc(CN(C)C)c4)cc23)c(-c2ccc(NC(=O)N(C)C)cc2)n1 | 14.6 ± 2.2 | 9.15 ± 1.5 | 0.3 ± 0.28
10 | CN(c1ncccc1CNc1nc(Nc2ccc3c(c2)CC(=O)N3)ncc1C(F)(F)F)S(C)(=O)=O | 5.7 ± 0.28 | 7.25 ± 1.9 | 4.8 ± 0.57
11 | CN1CCN(C2CCC(n3cc(-c4ccc(Oc5ccccc5)cc4)c4c(N)ncnc43)CC2)CC1 (configuration not stated) | 23.4 ± 0.28 | 17.9 ± 1.1 | 16.6 ± 0.71
12 | CNC(=O)c1ccc(C)c(-n2c(C)cc(OCc3ccc(F)cc3F)c(Br)c2=O)c1 | 0 | 0.05 ± 0.071 | 0
13 | CNC(=O)c1ccccc1Nc1nc(Nc2ccc3c(c2OC)CCC[C@H](N2CCN(CCO)CC2)C3)ncc1Cl | 8.75 ± 0.21 | 8.65 ± 0.21 | 8 ± 0.14
14 | CNc1nc(-c2ccc3c(N)n[nH]c3c2)cc(N2C[C@@H](C(=O)NC3CCCCC3)CC[C@H]2C)n1 | 7.15 ± 0.35 | 4 ± 2.3 | 0
15 | CNc1ncc2cc(-c3cc(NC(=O)NCCC(C)(C)C)c(F)cc3C)c(C)nc2n1 | 22.3 ± 0.28 | 15.6 ± 0.64 | 9.45 ± 0.21
16 | COc1cc2ncnc(Oc3cccc(NC(=O)Nc4cc(C(C)(C)C(F)(F)F)on4)c3)c2cc1OC | 15.8 ± 22 | 13.2 ± 19 | 21.6 ± 0.49
17 | COc1ccc(Cn2ccc3ccc(C(=O)NO)cc32)cc1 | 3.15 ± 1.6 | 4.25 ± 0.78 | 0
18 | C[C@@H](Oc1cc(-n2cnc3ccc(CN4CCN(C)CC4)cc32)sc1C(N)=O)c1ccccc1C(F)(F)F | 22.2 ± 1.5 | 20.6 ± 2.3 | 15.8
19 | C[C@@H](Oc1ccc2[nH]nc(/C=C/c3cnn(CCO)c3)c2c1)c1c(Cl)cncc1Cl | 14.5 ± 3.5 | 8.95 ± 1.5 | 6.65 ± 0.21
20 | C[C@@H]1CN(CC(=O)Nc2ccc3c(c2)Cc2cccc(-c4cc(=O)cc(N5CCOCC5)o4)c2S3)C[C@H](C)O1 | 6.15 ± 1.8 | 5.3 ± 1.3 | 3.05 ± 0.49

Row | SMILES | drug sensitivity score [1] | drug sensitivity score [2] | drug sensitivity score [3]
21 | C[C@H]1Oc2cc(cnc2N)-c2c(nn(C)c2C#N)CN(C)C(=O)c2ccc(F)cc21 | 0.5 ± 0.71 | 2.2 ± 3.1 | 0
22 | Cc1c(-c2ccc(N3CCc4cccc(C(=O)Nc5nc6ccccc6s5)c4C3)nc2C(=O)O)cnn1CC12CC3CC(CC(C3)C1)C2 | 0 | 0 | 0
23 | Cc1c(Cn2c(C)nc3c(C(=O)O)cc(N4CCOCC4)cc32)cccc1C(F)(F)F | 0 | 0 | 0
24 | Cc1ccc(C(=O)N(CCCN)[C@@H](c2oc3cc(Cl)ccc3c(=O)c2Cc2ccccc2)C(C)C)cc1 | 9.5 ± 6.1 | 6.65 ± 4.7 | 1.9 ± 0.14
25 | Cc1cccc(CC(=O)N2CCc3c2ccc(-c2cn(C)c4ncnc(N)c24)c3F)n1 | 1.85 ± 0.49 | 0.55 ± 0.21 | 2.45 ± 0.35
26 | Cc1nc(Nc2n[nH]c3c2CN(C(=O)N[C@H](CN(C)C)c2ccccc2)C3(C)C)c2sccc2n1 | 40.15 ± 0.35 | 37.2 ± 0.64 | 24.85 ± 0.071
27 | Cc1ncc(Cl)cc1NCc1ccc(C(=O)N[C@@H](CC2CCCC2)C(=O)NC2CC2)s1 | 4.65 ± 0.21 | 4 ± 4.5 | 0
28 | Cc1nn(C)c(COc2ccc(N3CCN(S(=O)(=O)N(C)C)CC3)cc2)c1-c1cccc2c(CCCOc3cccc4ccccc34)c(C(=O)O)n(CCN3CCOCC3)c12 | 6.9 ± 0.85 | 6.6 ± 0.14 | 6.65 ± 0.64
29 | N#Cc1ccc(COC[C@H]2O[C@@H](n3c(NCc4ccc(Cl)c(Cl)c4)nc4c(N)ncnc43)[C@H](O)[C@@H]2O)cc1 | 9.1 ± 1.8 | 11.2 ± 4 | 3.55 ± 0.071
30 | NCC(=O)Nc1ccc(-n2nc(C(F)(F)F)cc2-c2ccc3c(ccc4ccccc43)c2)cc1 | 0.6 ± 0.85 | 0 | 0
31 | NC[C@@](O)(c1ccc(Cl)cc1)c1ccc(-c2cn[nH]c2)cc1 | 1.25 ± 1.8 | 0.05 ± 0.071 | 1.55 ± 0.78
32 | Nc1nccc(-c2c(-c3ccc(F)cc3)ncn2C2CCCCC2)n1 | 0.05 ± 0.071 | 0 | 0
33 | Nc1ncnc2c1c(COc1cccc(Cl)c1)nn2C1CCOCC1 | 1.6 ± 1.1 | 1.05 ± 1.1 | 0.05 ± 0.071
34 | O=C(NC[C@H](O)CN1CCc2ccccc2C1)c1cc(NC2COC2)ncn1 | 7.8 ± 1.3 | 5.2 ± 3.5 | 0
35 | O=C(NOC[C@H](O)CO)c1ccc(F)c(F)c1Nc1ccc(I)cc1F | 7.95 ± 0.92 | 3.85 ± 1.1 | 0.2 ± 0.28
36 | O=C(Nc1ccc2[nH]nc(-c3ccncc3)c2c1)[C@@H]1CCN(CC(=O)N2CCN(c3ccc(-c4ncccn4)cc3)CC2)C1 | 17.8 ± 1.6 | 10.7 ± 1.4 | 5.1 ± 1.3
37 | O=C(O)c1ccc(-c2c[nH]c3ncc(-c4ccccc4)cc23)cc1C1CCCC1 | 2.8 ± 0.57 | 2.5 ± 0.28 | 0.85 ± 0.35
38 | O=C(O)c1ccc(CN2CCC(CN[C@@H]3C[C@H]3c3ccccc3)CC2)cc1 | 1.1 ± 1.1 | 0 | 0
39 | O=c1[nH]c(C2CCCN2)nc2c1oc1ccc(Cl)cc12 (configuration not stated) | 7.1 ± 1.1 | 2.3 ± 2.3 | 0
